According to publication PMC5829251, “NAD^+ analog reveals PARP-1 substrate-blocking mechanism and allosteric communication from catalytic center to DNA-binding domains” (Nature Communications, 2018):
“Also recorded” adds a separate entry of the source.

Legend:
Format in all cases: binding
PARP-1 CAT domain WT = biological target: T1, PARP-1 CAT domain WT (Homo sapiens, UniProt P09874); test: Differential scanning fluorimetry (DSF), PARP-1 CAT WT; details: for change of apparent TM of PARP-1 CAT WT (evidence of binding): 5 μM protein, various amounts of compound; for TM: in °C (unit assumed)
T1 construct: The PARP-1 CAT WT (residues 661–1014) was cloned in pET28 vector; made in house; host or cells: E. coli
Protocol: DSF experiments were performed as described, [13] using 5 µM protein, 2.5 µM DNA when indicated and various concentrations of compound (BAD, carba-NAD^+, benzamide, and ADP-ribose) as indicated in Fig. 1 and Fig. 3. Experiments were performed on a Roche LightCycler 480 RT-PCR. Reactions including DNA were performed with a 26- or 28-base pair (bp) unphosphorylated oligonucleotide for PARP-1, a 28-bp 5´-phosphorylated (5´P) oligonucleotide for PARP-2, and a 47-bp oligonucleotide including a central 5´P nick for PARP-3^13 in the following buffer: 25 mM Hepes pH 8.0, 150 mM NaCl, 1 mM EDTA, and 0.1 mM TCEP. Reactions with PARP-3 were conducted at lower ionic strength to allow binding to DNA as described (25 mM Hepes pH 8.0, 50 mM NaCl, 1 mM EDTA and 0.1 mM TCEP)[13]. ΔTM values were calculated by subtracting the TM determined for the protein in the absence of compound from the TM determined in the presence of compound. Experiments were performed in triplicate and a Boltzmann sigmoid was fit to the data to determine the TM values (KaleidaGraph).

[1] = biological target: T2, full-length PARP-1 D766/D770A (Homo sapiens, UniProt P09874, D766A/D770A); test: ITC, full-length PARP-1 D766/D770A; details: for n (stoichiometry): FL D766/D770A; for KD / Kd: FL D766/D770A 40 μM, without DNA, compound 525 μM titrated, 25°C
T2 construct: Full-length PARP-1 WT (residues 1–1014) was cloned in pET28 vector and site-directed mutagenesis was performed; made in house; host or cells: E. coli
Protocol: (§1) ITC experiments were performed using a MicroCal iTC200 calorimeter (GE Healthcare). BAD or benzamide at 525 μM was titrated into PARP-1 protein (50 μM for CAT WT and CAT ΔHD, 40 μM for full-length PARP-1 WT and mutants) or PARP-1 protein with DNA (20–40 μM) at 25°C. Prior to the experiment, proteins and DNA were dialyzed in 25 mM Hepes pH 8.0, 150 mM NaCl, 1 mM EDTA, and 0.1 mM TCEP. BAD and benzamide were diluted in the dialysis buffer. PARP-1/DNA complexes were assembled and incubated at RT for 30 min prior to performing the experiment. Experiments were typically designed as follows: a first injection of 0.2 μL was followed by 16 injections of 2.5 μL with a spacing of 100 s between injections. Excess heat upon each injection was integrated using an automatically adjusted base line and derived values corrected by heat of dilution. Data analysis and curve fitting were conducted using Origin 7 software. The ITC experiment for each sample was performed either two (PARP-1 WT with benzamide, PARP-1 E763/D766/D770A with benzamide, PARP-1 D766/D770A with BAD) or three times (the remaining eight samples). Table 2 lists the average KD value and stoichiometry (n) for the replicates, and the reported errors are the calculated standard deviations (representing the range of values for experiments repeated two times). We anticipate that the sub-stoichiometric n values for CAT constructs results from either the active fraction being < 100%, or the protein concentration determination being not entirely accurate. The analysis of full-length PARP-1 yielded n values around the expected value of 1.

[2] = biological target: T3, full-length PARP-1 E763/D766/D770A (Homo sapiens, UniProt P09874, D766A/D770A/E763A); test: ITC, full-length PARP-1 E763/D766/D770A; details: for n (stoichiometry): FL E763/D766/D770A; for KD / Kd: FL E763/D766/D770A 40 μM, without DNA, compound 525 μM titrated, 25°C
T3 construct: Full-length PARP-1 WT (residues 1–1014) was cloned in pET28 vector and site-directed mutagenesis was performed; made in house; host or cells: E. coli
Protocol: as §1

PARP-1 WT [3] = biological target: T4, PARP-1 WT (Homo sapiens, UniProt P09874); test: Fluorescence polarization DNA competition assay, PARP-1 WT; details: 40 nM PARP-1 WT, 20 nM labeled DNA, compound 500 μM, competitor 100 nM
T4 construct: Full-length PARP-1 WT (residues 1–1014) was cloned in pET28 vector; made in house; host or cells: E. coli
Protocol: (§2) For the DNA competition assay, 40 nM PARP-1 WT, or PARP-1 ΔHD, was incubated with 20 nM of dumbbell DNA with a central nick carrying an internal fluorescent FAM group (5′-GCT GAG C/FAMT/T CTGGTGAAGCTCAGCTCGCGGCAGCTGGTGCTGCCGCGA-3′) for 30 min at RT in 12 mM Hepes pH 8.0, 60 mM KCl, 8 mM MgCl2, 4% glycerol, 5.7 mM beta-mercaptoethanol, 0.05 mg per ml bovine serm albumin with or without BAD or benzamide (500 μM). A competitor unlabeled DNA of the same sequence was added at 100 nM and FP was measured over time on a VictorV plate reader (Perkin Elmer). For the DNA affinity measurement assay, increasing concentrations of PARP-1 WT were incubated for 30 min at RT with 5 nM of dumbbell DNA probe carrying a nick (described above) in the absence or presence of BAD or benzamide (100 μM) in the following buffer: 12 mM Hepes pH 8.0, 250 mM NaCl, 4% glycerol, 5.7 mM beta-mercaptoethanol, 0.05 mg per ml bovine serum albumin.

PARP-1 WT [4] = biological target: T4, PARP-1 WT; test: Fluorescence polarization DNA affinity measurement assay; details: presence versus absence of compound
Protocol: as §2

[5] = Figure 1e, CAT WT 5 μM, compound 25 µM, TM without compound 51.58
[6] = Figure 1e, CAT WT 5 μM, compound 150 µM, TM without compound 51.58
[7] = Figure 1e, CAT WT 5 μM, compound 750 µM, TM without compound 51.58
[8] = Figure 1e, CAT WT 5 μM, compound 1500 µM, TM without compound 51.58

T1 sequence (P09874 661-1014): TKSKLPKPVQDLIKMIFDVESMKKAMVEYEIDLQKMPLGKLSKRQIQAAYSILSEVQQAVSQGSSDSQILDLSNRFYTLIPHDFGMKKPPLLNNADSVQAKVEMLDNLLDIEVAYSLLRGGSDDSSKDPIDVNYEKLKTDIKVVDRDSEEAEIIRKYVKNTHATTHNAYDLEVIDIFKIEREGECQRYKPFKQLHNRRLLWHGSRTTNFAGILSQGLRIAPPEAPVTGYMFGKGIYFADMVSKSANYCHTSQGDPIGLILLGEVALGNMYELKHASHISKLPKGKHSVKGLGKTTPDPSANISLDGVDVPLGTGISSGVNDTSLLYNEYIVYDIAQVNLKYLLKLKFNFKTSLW
T3 sequence (P09874 whole entry E763A/D766A/D770A, the tested form may be a part): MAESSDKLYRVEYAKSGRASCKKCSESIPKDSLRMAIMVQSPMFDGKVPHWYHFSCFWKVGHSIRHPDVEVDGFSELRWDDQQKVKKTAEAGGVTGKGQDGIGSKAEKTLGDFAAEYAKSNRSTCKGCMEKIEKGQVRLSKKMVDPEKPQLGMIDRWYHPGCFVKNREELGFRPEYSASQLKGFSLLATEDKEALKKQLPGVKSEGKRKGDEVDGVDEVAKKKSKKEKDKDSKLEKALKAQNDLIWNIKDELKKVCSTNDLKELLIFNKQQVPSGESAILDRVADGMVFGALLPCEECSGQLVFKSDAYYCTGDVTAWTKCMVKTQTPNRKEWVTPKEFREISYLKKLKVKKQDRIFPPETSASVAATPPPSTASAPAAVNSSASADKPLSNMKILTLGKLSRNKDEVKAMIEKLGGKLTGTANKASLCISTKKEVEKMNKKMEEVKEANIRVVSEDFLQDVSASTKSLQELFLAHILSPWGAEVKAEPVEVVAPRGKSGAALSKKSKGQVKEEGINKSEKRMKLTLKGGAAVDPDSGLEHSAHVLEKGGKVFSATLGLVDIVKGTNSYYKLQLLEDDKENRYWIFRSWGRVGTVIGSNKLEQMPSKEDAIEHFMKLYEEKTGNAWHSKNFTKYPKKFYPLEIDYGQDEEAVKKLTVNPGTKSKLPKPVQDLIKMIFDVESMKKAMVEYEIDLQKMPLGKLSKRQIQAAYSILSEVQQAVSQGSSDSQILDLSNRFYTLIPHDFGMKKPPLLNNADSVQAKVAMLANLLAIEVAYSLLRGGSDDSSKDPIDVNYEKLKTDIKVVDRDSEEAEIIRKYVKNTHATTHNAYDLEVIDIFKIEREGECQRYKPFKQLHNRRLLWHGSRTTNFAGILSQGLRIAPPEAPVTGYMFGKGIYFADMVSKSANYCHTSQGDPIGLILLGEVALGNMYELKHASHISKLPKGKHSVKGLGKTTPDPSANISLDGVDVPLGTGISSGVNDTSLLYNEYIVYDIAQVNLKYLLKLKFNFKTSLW
T4 sequence (P09874 whole entry, the tested form may be a part): as the sequence (P09874 whole entry E763A/D766A/D770A, the tested form may be a part) above, with A763E, A766D, A770D counted along it
T2 sequence (P09874 whole entry D766A/D770A, the tested form may be a part): as the sequence (P09874 whole entry E763A/D766A/D770A, the tested form may be a part) above, with A763E counted along it

| Compound | change of apparent TM of PARP-1 CAT WT (evidence of binding) (PARP-1 CAT domain WT) | increase in TM of PARP-1 CAT containing the HD (PARP-1 CAT domain WT; 4 mM BAD) | TM (PARP-1 CAT domain WT; [5]) | TM (PARP-1 CAT domain WT; [6]) | TM (PARP-1 CAT domain WT; [7]) | TM (PARP-1 CAT domain WT; [8]) | TM (PARP-1 CAT domain WT; Figure 1d, CAT WT 5 μM, compound 50 µM, TM without compound 51.23) | TM (PARP-1 CAT domain WT; Figure 1d, CAT WT 5 μM, compound 250 µM, TM without compound 51.23) | TM (PARP-1 CAT domain WT; Figure 1d, CAT WT 5 μM, compound 1250 µM, TM without compound 51.23) | TM (PARP-1 CAT domain WT; Figure 3d, PARP-1 CAT 5 μM, BAD 4 mM, TM without BAD 51.04) | n (stoichiometry) [1] | KD [1] | Kd [1] | calculated KD for BAD lower than observed for all other proteins ([2]; E763/D766/D770A versus all other proteins) | n (stoichiometry) [2] | KD [2] | Kd [2] | exchange of PARP-1 from labeled to unlabeled competitor DNA (PARP-1 WT [3]) | increase in PARP-1 affinity for a DNA single-strand break (PARP-1 WT [4]) |
| --- | --- | --- | --- | --- | --- | --- | --- | --- | --- | --- | --- | --- | --- | --- | --- | --- | --- | --- | --- |
| NC(=O)c1cccc(C2OC(COP(=O)(O)OP(=O)(O)OCC3OC(n4cnc5c(N)ncnc54)C(O)C3O)C(O)C2O)c1 (centres unmarked) [BAD, benzamide adenine dinucleotide] | neither BAD nor carba-NAD^+ changed the apparent TM; also recorded: did not show evidence of binding | no increase in TM | 51.48 | 51.45 | 51.64 | 51.60 | 51.06 | 51.09 | 51.30 | 51.21 | 0.96 + /− 0.10 | showed evidence of binding | 2.49 µM | about 10 fold | 1.00 + /− 0.13 | showed evidence of binding | 0.38 µM | greatly prevented the exchange | 10 fold |
| NC(=O)c1ccccc1 [benzamide] | increased the TM | – | 52.53 | 54.28 | 54.86 | 57.12 | – | – | – | – | 0.81 + /− 0.14 | also bound to benzamide similarly | 2.81 µM | – | 0.89 + /− 0.07 | also bound to benzamide similarly | 2.99 µM | did not affect PARP-1 release | no effect |
